Read-outs that look alike come from different tables or passages of the source.
Legend:
[1] = target: ERBB2-NTEV-tevS-GV + ERBB2-CTEV (Homo sapiens, UniProt P04626); experiment: ERBB dimerization split TEV assay ERBB2/ERBB2; assay type: cell-based; details: 10 ng/ml EGFld
Description: (§1) Gateway recombination cloning (Life Technologies) was applied for generating plasmids. Each ORF cloned was PCR‐amplified using the Pwo proofreading DNA polymerase (Roche) and BP‐recombined into the pDONR/Zeo plasmid (Life Technologies) to yield an entry vector, which was control‐digested using BsrGI to release the insert, and sequence‐verified. The following human ORFs were cloned using cDNA image clones ordered from Source BioScience: ERBB4 transcript variant JM‐a/CYT‐1 (Accession: BC112199), PIK3R1 (BC094795), GRB2 transcript variant 1 (BC000631), SHC1 transcript variant 2 (BC014158), STAT5A (BC027036), and SRC transcription variant 1 (BC051270). For EGFR, ERBB2, and ERBB3, entry vectors were obtained from the human CCSB kinase collection available from Addgene (Johannessen et al, 2010). Entry vectors were LR‐recombined into split TEV destination vectors [either pcDNA_attR1‐ORF‐attR2‐NTEV‐tevS‐GV‐2xHA_DEST or pTag4C_attR1‐ORF‐attR2‐CTEV‐2xHA_DEST, plasmids were described in detail before (Wehr et al, 2006)] to yield expression vectors, which were control‐digested using BsrGI. The plasmids for Nrg1 type I β1a and rat Nrg1 type III β1a have been described before (Wehr et al, 2006).

TEV protease = target: T1, TEV protease (Tobacco etch virus, UniProt P04517); experiment: TEV protease activity control assay (TM-TEV/TM-tevS-GV); assay type: cell-based; details: TM-TEV, TM-tevS-GV and 10×UAS-Fluc in PC12 cells
T1 construct: a transmembrane‐localized TEV protease (TM‐TEV) was expressed in PC12 cells; expressed in transfected cells; host or cells: PC12 Tet-Off cells (rat)
Description: All counts (407 compounds and 96 controls) from the Nrg1‐ERBB4‐PIK3R1 split TEV compound screen were plotted against the z‐score using Mondrian, with pathway activators displaying high values and inhibitors low values. For the secondary analysis, we selected all candidates that were at least three standard deviations away from the mean. […] For the GAL4/UAS assay, GAL4‐VP16 (GV) and 10×UAS firefly luciferase (10×UAS‐Fluc) plasmids were transfected into PC12 cells. For TEV protease activity assays, a transmembrane‐localized TEV protease (TM‐TEV) was expressed in PC12 cells with a transmembrane‐localized and TEV‐cleavable GV (TM‐tevS‐GV) and the 10×UAS‐Fluc reporter. […] EGFld was applied as Nrg1 stimulus. In both control assays, the assay activity (firefly luciferase, black lines) was similar to the toxicity levels (gray lines). Data are shown as mean, a nd error bars represent SEM, n = 6. The insets depict IC50 values in μM.

Nrg1-tg and wt mice [2] = experiment: Light-dark preference test; assay type: in vivo, mouse; details: 50 mg/kg s.c. daily
Description: (§2) For behavioral testing, age‐matched male mice (8–16 weeks) on C57Bl/6 background that constitutively overexpress the 2xHA‐tagged Nrg1 type III β1a isoform (Nrg1‐tg) under the control of the mouse Thy1.2 promoter (Velanac et al, 2012) and their wild‐type (wt) littermates as controls were used. Animals were group‐housed in the same ventilated sound‐attenuated rooms under a 12‐h light/12‐h dark schedule (lights on at 8:00 am) at an ambient temperature of 21°C with food and water available ad libitum. One week prior to experiments, mice were separated into single cages and habituated to the experimental rooms. To minimize the influence of the circadian rhythm on drug actions, the treatment groups were analyzed at balanced time points during the light phase. […] All animal experiments were conducted in accordance with NIH principles of laboratory animal care and were approved by the Government of Lower Saxony, Germany, in accordance with the German Animal Protection Law.
(§3) Treatment was continued throughout the behavioral analysis period. To avoid injection‐induced stress prior to behavioral testing, mice were injected in the afternoon, after the entire cohort has completed the behavioral paradigm.

[3] = parameters: method as in Juruena et al, 2009; details: ref Juruena et al, 2009; cited from earlier work
Nrg1-tg and wt mice [4] = experiment: Fear conditioning; assay type: in vivo, mouse; details: 50 mg/kg s.c. daily
Description: as §2, §3

[5] = target: EGFR-NTEV-tevS-GV + ERBB2-CTEV (Homo sapiens, UniProt P00533+P04626); experiment: ERBB dimerization split TEV assay EGFR/ERBB2; assay type: cell-based; details: 10 ng/ml EGFld
Description: as §1

EGFR dimers = EGFR dimers (Homo sapiens, UniProt P00533); experiment: ERBB dimerization split TEV assay EGFR/EGFR; assay type: cell-based
Description: as §1

Nrg1-tg and wt mice [6] = experiment: Tail suspension test; assay type: in vivo, mouse; details: 50 mg/kg s.c. daily
Description: as §2, §3

[7] = parameters: method as in Zhou et al, 2011; Rimmele et al, 2013; details: acute administration; ref Zhou et al, 2011; Rimmele et al, 2013; cited from earlier work
ERBB4 = ERBB4 (Homo sapiens, UniProt Q15303); experiment: Western blot of ERBB4 phosphorylation in transfected PC12 cells; assay type: cell-based; details: PC12 cells transfected with ERBB4-NTEV-tevS-GV, 10 ng/ml EGFld, 10 μM, 1 h
Description: After 24 h of expression, cells were treated as indicated and lysed in a 1% Triton‐X lysis buffer (50 mM Tris [pH 7.5], 150 mM NaCl, 1% Triton X‐100, 1 mM EGTA) supplemented with 10 mM NaF, 1 mM […], 1 mM ZnCl2 4.5 mM Na4P20_7, as phosphatase inhibitors, and the complete protease inhibitor cocktail (Roche).
(§4) Each blot was replicated two times.

ERK = experiment: Western blot of pERK in prefrontal cortex of spironolactone-treated mice; assay type: in vivo, mouse; details: Nrg1-tg and wt mice, 50 mg/kg s.c. daily for 21 days, prefrontal cortex lysates
Description: For the generation of lysates, the isolated tissue was immediately placed into cooled (4°C) sucrose buffer (320 mM sucrose, 10 mM Tris–HCl, 1 mM NaHCO3, 1 mM MgCl2, supplemented with 10 mM NaF, 1 mM […], 1 mM ZnCl2, 4.5 mM Na4P20_7 as phosphatase inhibitors, and the complete protease inhibitor cocktail (Roche)), homogenized using an ultra‐turrax (IKA GmbH, Staufen, Germany), sonicated (3 pulses for 10 s), and denatured for 10 min at 70°C in LDS sample buffer.
as §4, §3

[8] = parameters: method as in Zhou et al, 2011; details: ref Zhou et al, 2011; cited from earlier work

Sequence of EGFR dimers (P00533 25-1210): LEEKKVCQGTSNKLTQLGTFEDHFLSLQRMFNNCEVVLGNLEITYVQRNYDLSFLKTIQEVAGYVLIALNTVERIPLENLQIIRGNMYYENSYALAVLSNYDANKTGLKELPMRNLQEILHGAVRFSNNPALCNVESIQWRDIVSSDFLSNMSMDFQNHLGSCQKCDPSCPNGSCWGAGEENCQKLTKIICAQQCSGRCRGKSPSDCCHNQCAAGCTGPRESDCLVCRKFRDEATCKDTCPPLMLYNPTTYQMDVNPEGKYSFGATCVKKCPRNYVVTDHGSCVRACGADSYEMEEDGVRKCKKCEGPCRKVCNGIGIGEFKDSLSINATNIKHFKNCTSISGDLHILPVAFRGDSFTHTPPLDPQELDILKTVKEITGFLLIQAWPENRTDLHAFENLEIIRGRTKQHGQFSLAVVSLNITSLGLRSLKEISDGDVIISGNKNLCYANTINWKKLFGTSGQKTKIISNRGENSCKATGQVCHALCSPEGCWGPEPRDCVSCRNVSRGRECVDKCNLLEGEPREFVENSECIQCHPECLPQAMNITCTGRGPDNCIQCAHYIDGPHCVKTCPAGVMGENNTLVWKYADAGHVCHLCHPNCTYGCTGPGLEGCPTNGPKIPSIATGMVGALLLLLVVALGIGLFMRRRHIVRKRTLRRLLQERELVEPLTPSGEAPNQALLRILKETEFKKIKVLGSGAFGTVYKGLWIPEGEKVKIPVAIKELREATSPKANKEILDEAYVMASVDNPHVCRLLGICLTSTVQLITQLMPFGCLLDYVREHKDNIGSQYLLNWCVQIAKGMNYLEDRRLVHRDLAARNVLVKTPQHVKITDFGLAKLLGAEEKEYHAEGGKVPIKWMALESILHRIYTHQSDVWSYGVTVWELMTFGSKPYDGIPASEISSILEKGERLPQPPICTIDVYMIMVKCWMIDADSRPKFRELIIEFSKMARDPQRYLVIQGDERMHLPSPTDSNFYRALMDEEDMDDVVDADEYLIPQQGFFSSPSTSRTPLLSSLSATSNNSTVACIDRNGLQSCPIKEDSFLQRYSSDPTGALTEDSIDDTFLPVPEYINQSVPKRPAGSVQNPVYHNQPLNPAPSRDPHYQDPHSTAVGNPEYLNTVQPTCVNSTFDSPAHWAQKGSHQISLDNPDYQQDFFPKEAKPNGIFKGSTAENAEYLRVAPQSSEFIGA
Sequence of EGFR dimers (P00533 25-1210): as above
Sequence of ERBB4 (Q15303 26-1308): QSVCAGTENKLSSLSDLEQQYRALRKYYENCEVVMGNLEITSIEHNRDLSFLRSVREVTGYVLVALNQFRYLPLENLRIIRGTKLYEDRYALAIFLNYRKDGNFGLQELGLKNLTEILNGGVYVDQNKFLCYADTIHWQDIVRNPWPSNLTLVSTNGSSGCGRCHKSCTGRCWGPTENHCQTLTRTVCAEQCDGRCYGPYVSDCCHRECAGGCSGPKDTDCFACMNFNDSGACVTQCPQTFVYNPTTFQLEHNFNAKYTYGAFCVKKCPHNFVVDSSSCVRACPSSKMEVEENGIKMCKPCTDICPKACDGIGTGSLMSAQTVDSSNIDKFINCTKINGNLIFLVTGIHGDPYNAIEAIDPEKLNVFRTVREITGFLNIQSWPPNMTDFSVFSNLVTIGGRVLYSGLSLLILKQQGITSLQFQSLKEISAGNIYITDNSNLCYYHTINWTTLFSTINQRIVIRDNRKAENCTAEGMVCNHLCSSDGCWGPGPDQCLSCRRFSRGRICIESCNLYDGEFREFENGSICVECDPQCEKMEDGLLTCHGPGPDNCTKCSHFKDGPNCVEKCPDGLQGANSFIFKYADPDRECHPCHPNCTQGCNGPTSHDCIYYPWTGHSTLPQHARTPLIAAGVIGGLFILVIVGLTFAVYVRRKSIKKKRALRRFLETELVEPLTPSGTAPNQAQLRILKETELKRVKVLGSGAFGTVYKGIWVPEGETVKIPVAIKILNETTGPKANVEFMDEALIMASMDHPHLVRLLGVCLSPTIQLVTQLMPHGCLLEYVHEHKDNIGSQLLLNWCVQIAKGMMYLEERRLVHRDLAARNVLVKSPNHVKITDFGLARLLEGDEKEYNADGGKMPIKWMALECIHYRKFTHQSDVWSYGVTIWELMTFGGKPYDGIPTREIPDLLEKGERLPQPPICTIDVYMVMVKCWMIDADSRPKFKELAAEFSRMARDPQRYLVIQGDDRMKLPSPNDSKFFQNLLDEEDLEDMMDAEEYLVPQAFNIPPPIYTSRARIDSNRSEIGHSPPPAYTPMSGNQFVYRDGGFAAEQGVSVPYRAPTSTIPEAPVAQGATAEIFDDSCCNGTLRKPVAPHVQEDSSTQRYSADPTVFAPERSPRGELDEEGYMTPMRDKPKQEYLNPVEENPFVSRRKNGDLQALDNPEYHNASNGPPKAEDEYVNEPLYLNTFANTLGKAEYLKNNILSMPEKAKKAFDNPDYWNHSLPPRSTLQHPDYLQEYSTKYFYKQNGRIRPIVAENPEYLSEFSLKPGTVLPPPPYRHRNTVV
T1 sequence (P04517 2038-2279): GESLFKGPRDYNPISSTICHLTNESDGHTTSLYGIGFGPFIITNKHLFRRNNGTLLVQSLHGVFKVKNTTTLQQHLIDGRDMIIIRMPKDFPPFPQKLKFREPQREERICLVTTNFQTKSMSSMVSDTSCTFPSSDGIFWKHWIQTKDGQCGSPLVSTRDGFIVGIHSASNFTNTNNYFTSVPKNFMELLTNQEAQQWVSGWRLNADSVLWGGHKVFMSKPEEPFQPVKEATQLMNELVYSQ

## CC(=O)S[C@@H]1CC2=CC(=O)CC[C@]2(C)[C@H]2CC[C@@]3(C)[C@@H](CC[C@@]34CCC(=O)O4)[C@H]12 [Spironolactone]
[1]
  IC50: 13.1 µM
TEV protease
  effect on activity of the TEV protease: does not affect activities of control assays
Nrg1-tg and wt mice [2]
  time in the light compartment: spent more time in the light compartment
[3]
  anxiety in a small group of patients suffering from bipolar disorder: partially improved
Nrg1-tg and wt mice [4]
  cue memory: neither genotype nor treatment‐dependent alterations
Nrg1-tg and wt mice [4]; Nrg1-tg mice
  freezing in the contextual fear memory test: non‐significant reduction in freezing
[5]
  IC50: 4.66 µM
EGFR dimers; 100 ng/ml EGF as stimulus, read-out: IC50, EGFR dimers, stimulus EGF
  IC50: 1.74 µM
EGFR dimers; PC12 cells, 10 ng/ml EGFld, read-out: IC50, EGFR-NTEV-tevS-GV + EGFR-CTEV
  IC50: 8.5 µM
Nrg1-tg and wt mice [6]
  time active in the tail suspension test (genotype effect): independent of treatment
[7]
  memory retrieval in healthy human volunteers: reduced memory retrieval
ERBB4
  ERBB4 phosphorylation levels at Tyr1056: reduces but not abolishes the phosphorylation levels
ERK
  pERK (downstream signaling): neither modulated by Nrg1 overexpression, nor by spironolactone treatment
[8]
  recent fear memory formation in mice: impaired recent fear memory formation

Source: article PMC5653977 (EMBO Molecular Medicine, 2017)
